ChEMBL document CHEMBL3045612, “Solvent- and catalyst-free synthesis of bis-adducts of 3-formylchromone as potential antimicrobial agents” (2013)
In brackets after ≈: the same amount, converted by molar mass.

Assays:
Staphylococcus aureus [1] = assay: Bactericidal activity against methicillin-resistant Staphylococcus aureus after 18 to 24 hr; format: functional
Escherichia coli [2] = assay: Antibacterial activity against Escherichia coli ATCC 25922 assessed as growth inhibition after 24 hr by macrodilution method; format: functional; settings: ATCC 25922, 24 h
Pseudomonas aeruginosa [3] = assay: Bactericidal activity against Pseudomonas aeruginosa ATCC 27853 after 18 to 24 hr; format: functional
Pseudomonas aeruginosa [4] = assay: Antibacterial activity against Pseudomonas aeruginosa ATCC 27853 assessed as growth inhibition after 24 hr by macrodilution method; format: functional; settings: ATCC 27853, 24 h
Escherichia coli [5] = assay: Bactericidal activity against Escherichia coli ATCC 25922 after 18 to 24 hr; format: functional
Streptococcus pyogenes [6] = assay: Bactericidal activity against Streptococcus pyogenes after 18 to 24 hr; format: functional
[7] = tested on: Trichophyton mentagrophytes; assay: Antifungal activity against Trichophyton mentagrophytes assessed as growth inhibition after 48 hr by macrodilution method; format: functional
Candida albicans [8] = assay: Fungicidal activity against Candida albicans after 48 hr; format: functional
Klebsiella pneumoniae [9] = assay: Antibacterial activity against Klebsiella pneumoniae clinical isolate assessed as growth inhibition after 24 hr by macrodilution method; format: functional
Streptococcus pyogenes [10] = assay: Antibacterial activity against Streptococcus pyogenes assessed as growth inhibition after 24 hr by macrodilution method; format: functional
Aspergillus fumigatus [11] = assay: Fungicidal activity against Aspergillus fumigatus after 48 hr; format: functional
Klebsiella pneumoniae [12] = assay: Bactericidal activity against Klebsiella pneumoniae clinical isolate after 18 to 24 hr; format: functional
Aspergillus fumigatus [13] = assay: Antifungal activity against Aspergillus fumigatus assessed as growth inhibition after 3 to 4 days by disk diffusion assay; format: functional
Talaromyces marneffei [14] = assay: Antifungal activity against Talaromyces marneffei assessed as growth inhibition after 3 to 4 days by disk diffusion assay; format: functional
Staphylococcus aureus [15] = assay: Antibacterial activity against methicillin-resistant Staphylococcus aureus assessed as growth inhibition after 24 hr by macrodilution method; format: functional
[16] = tested on: Trichophyton mentagrophytes; assay: Antifungal activity against Trichophyton mentagrophytes assessed as growth inhibition after 3 to 4 days by disk diffusion assay; format: functional
Pseudomonas aeruginosa [17] = assay: Antibacterial activity against Pseudomonas aeruginosa ATCC 27853 assessed as growth inhibition after 24 hr by disk diffusion assay; format: functional
Talaromyces marneffei [18] = assay: Antifungal activity against Talaromyces marneffei assessed as growth inhibition after 48 hr by macrodilution method; format: functional
Escherichia coli [19] = assay: Antibacterial activity against Escherichia coli ATCC 25922 assessed as growth inhibition after 24 hr by disk diffusion assay; format: functional
Candida albicans [20] = assay: Antifungal activity against Candida albicans assessed as growth inhibition after 3 to 4 days by disk diffusion assay; format: functional
Staphylococcus aureus [21] = assay: Antibacterial activity against methicillin-resistant Staphylococcus aureus assessed as growth inhibition after 24 hr by disk diffusion assay; format: functional
Klebsiella pneumoniae [22] = assay: Antibacterial activity against Klebsiella pneumoniae clinical isolate assessed as growth inhibition after 24 hr by disk diffusion assay; format: functional
Aspergillus fumigatus [23] = assay: Antifungal activity against Aspergillus fumigatus assessed as growth inhibition after 48 hr by macrodilution method; format: functional
Streptococcus pyogenes [24] = assay: Antibacterial activity against Streptococcus pyogenes assessed as growth inhibition after 24 hr by disk diffusion assay; format: functional
Talaromyces marneffei [25] = assay: Fungicidal activity against Talaromyces marneffei after 48 hr; format: functional
Candida albicans [26] = assay: Antifungal activity against Candida albicans assessed as growth inhibition after 48 hr by macrodilution method; format: functional
[27] = tested on: Trichophyton mentagrophytes; assay: Fungicidal activity against Trichophyton mentagrophytes after 48 hr; format: functional
Escherichia coli [28] = assay: microbe, parasite or virus in culture; settings: ATCC 25922, 24 h, read-out: DIZ
Description: Antibacterial activity against Escherichia coli ATCC 25922 assessed as growth inhibition at 30 ug after 24 hr by halo zone test

Pseudomonas aeruginosa [29] = assay: microbe, parasite or virus in culture; settings: ATCC 27853, 24 h, read-out: DIZ
Description: Antibacterial activity against Pseudomonas aeruginosa ATCC 27853 assessed as growth inhibition at 30 ug after 24 hr by halo zone test

Staphylococcus aureus [30] = assay: Antibacterial activity against methicillin-resistant Staphylococcus aureus assessed as growth inhibition at 30 ug after 24 hr by halo zone test; settings: read-out: DIZ
Talaromyces marneffei [31] = assay: Antifungal activity against Talaromyces marneffei assessed as growth inhibition after 3 to 4 days by halo zone test; format: functional
Aspergillus fumigatus [32] = assay: Antifungal activity against Aspergillus fumigatus assessed as growth inhibition after 3 to 4 days by halo zone test; format: functional
Candida albicans [33] = assay: Antifungal activity against Candida albicans assessed as growth inhibition after 3 to 4 days by halo zone test; format: functional
[34] = tested on: Trichophyton mentagrophytes; assay: Antifungal activity against Trichophyton mentagrophytes assessed as growth inhibition after 3 to 4 days by halo zone test; format: functional

| Compound | MBC (Staphylococcus aureus [1]) [µg/mL] | MIC (Escherichia coli [2]) [µg/mL] | MBC (Pseudomonas aeruginosa [3]) [µg/mL] | MIC (Pseudomonas aeruginosa [4]) [µg/mL] | MBC (Escherichia coli [5]) [µg/mL] | MBC (Streptococcus pyogenes [6]) [µg/mL] | MIC [7] [µg/mL] | MFC (Candida albicans [8]) [µg/mL] | MIC (Klebsiella pneumoniae [9]) [µg/mL] | MIC (Streptococcus pyogenes [10]) [µg/mL] | MFC (Aspergillus fumigatus [11]) [µg/mL] | MBC (Klebsiella pneumoniae [12]) [µg/mL] | diameter of the inhibition zone (DIZ) (Aspergillus fumigatus [13]) [mm] | diameter of the inhibition zone (DIZ) (Talaromyces marneffei [14]) [mm] | MIC (Staphylococcus aureus [15]) [µg/mL] | MIC (Talaromyces marneffei [18]) [µg/mL] | MIC (Aspergillus fumigatus [23]) [µg/mL] | MFC (Talaromyces marneffei [25]) [µg/mL] | MIC (Candida albicans [26]) [µg/mL] | MFC [27] [µg/mL] | further results |
| --- | --- | --- | --- | --- | --- | --- | --- | --- | --- | --- | --- | --- | --- | --- | --- | --- | --- | --- | --- | --- | --- |
| Cc1cc(O)c(C(c2c(O)cc(C)oc2=O)c2coc3ccccc3c2=O)c(=O)o1 | 50 (≈ 122 µM) | 25 (≈ 61.2 µM) | 50 (≈ 122 µM) | 12.5 (≈ 30.6 µM) | 50 (≈ 122 µM) | 50 (≈ 122 µM) | 25 (≈ 61.2 µM) | 50 (≈ 122 µM) | 25 (≈ 61.2 µM) | 25 (≈ 61.2 µM) | 50 (≈ 122 µM) | 50 (≈ 122 µM) | 21.3 | 14.2 | 25 (≈ 61.2 µM) | 25 (≈ 61.2 µM) | 12.5 (≈ 30.6 µM) | 50 (≈ 122 µM) | 12.5 (≈ 30.6 µM) | 50 (≈ 122 µM) | diameter of the inhibition zone (DIZ) [16]: 17.8 mm; diameter of the inhibition zone (DIZ) (Pseudomonas aeruginosa [17]): 21.2 mm; diameter of the inhibition zone (DIZ) (Escherichia coli [19]): 18.6 mm; diameter of the inhibition zone (DIZ) (Candida albicans [20]): 24.1 mm; diameter of the inhibition zone (DIZ) (Staphylococcus aureus [21]): 18.5 mm; diameter of the inhibition zone (DIZ) (Klebsiella pneumoniae [22]): 17.2 mm; diameter of the inhibition zone (DIZ) (Streptococcus pyogenes [24]): 19.1 mm |
| Cc1cc2oc(=O)c(C(c3c(O)c4cc(C)c(C)cc4oc3=O)c3coc4ccccc4c3=O)c(O)c2cc1C | 25 (≈ 46.6 µM) | 25 (≈ 46.6 µM) | 25 (≈ 46.6 µM) | 12.5 (≈ 23.3 µM) | 50 (≈ 93.2 µM) | 25 (≈ 46.6 µM) | 12.5 (≈ 23.3 µM) | 25 (≈ 46.6 µM) | 12.5 (≈ 23.3 µM) | 12.5 (≈ 23.3 µM) | 25 (≈ 46.6 µM) | 50 (≈ 93.2 µM) | 22.1 | 14.8 | 12.5 (≈ 23.3 µM) | 12.5 (≈ 23.3 µM) | 12.5 (≈ 23.3 µM) | 25 (≈ 46.6 µM) | 12.5 (≈ 23.3 µM) | 50 (≈ 93.2 µM) | diameter of the inhibition zone (DIZ) [16]: 19.4 mm; diameter of the inhibition zone (DIZ) (Pseudomonas aeruginosa [17]): 23.3 mm; diameter of the inhibition zone (DIZ) (Escherichia coli [19]): 20.8 mm; diameter of the inhibition zone (DIZ) (Candida albicans [20]): 27.2 mm; diameter of the inhibition zone (DIZ) (Staphylococcus aureus [21]): 20.7 mm; diameter of the inhibition zone (DIZ) (Klebsiella pneumoniae [22]): 19.3 mm; diameter of the inhibition zone (DIZ) (Streptococcus pyogenes [24]): 21.2 mm |
| O=c1oc2ccccc2c(O)c1C(c1c(O)c2ccccc2oc1=O)c1coc2ccccc2c1=O | 50 (≈ 104 µM) | 25 (≈ 52 µM) | 50 (≈ 104 µM) | 25 (≈ 52 µM) | 50 (≈ 104 µM) | 50 (≈ 104 µM) | 25 (≈ 52 µM) | 100 (≈ 208 µM) | 12.5 (≈ 26 µM) | 25 (≈ 52 µM) | 50 (≈ 104 µM) | 50 (≈ 104 µM) | 16.7 | 13.1 | 25 (≈ 52 µM) | 25 (≈ 52 µM) | 25 (≈ 52 µM) | 100 (≈ 208 µM) | 25 (≈ 52 µM) | 50 (≈ 104 µM) | diameter of the inhibition zone (DIZ) [16]: 19.3 mm; diameter of the inhibition zone (DIZ) (Pseudomonas aeruginosa [17]): 26.4 mm; diameter of the inhibition zone (DIZ) (Escherichia coli [19]): 22.1 mm; diameter of the inhibition zone (DIZ) (Candida albicans [20]): 19.1 mm; diameter of the inhibition zone (DIZ) (Staphylococcus aureus [21]): 18.1 mm; diameter of the inhibition zone (DIZ) (Klebsiella pneumoniae [22]): 17.3 mm; diameter of the inhibition zone (DIZ) (Streptococcus pyogenes [24]): 21.5 mm |
| Cc1[nH]n(-c2ccccc2)c(=O)c1C(c1coc2ccccc2c1=O)c1c(C)[nH]n(-c2ccccc2)c1=O | 50 (≈ 99.1 µM) | 25 (≈ 49.5 µM) | 100 (≈ 198 µM) | 25 (≈ 49.5 µM) | 100 (≈ 198 µM) | 50 (≈ 99.1 µM) | 25 (≈ 49.5 µM) | 50 (≈ 99.1 µM) | 25 (≈ 49.5 µM) | 25 (≈ 49.5 µM) | 50 (≈ 99.1 µM) | 100 (≈ 198 µM) | 20.7 | 14.3 | 25 (≈ 49.5 µM) | 25 (≈ 49.5 µM) | 25 (≈ 49.5 µM) | 100 (≈ 198 µM) | 25 (≈ 49.5 µM) | 50 (≈ 99.1 µM) | diameter of the inhibition zone (DIZ) [16]: 18.1 mm; diameter of the inhibition zone (DIZ) (Pseudomonas aeruginosa [17]): 13.1 mm; diameter of the inhibition zone (DIZ) (Escherichia coli [19]): 15.5 mm; diameter of the inhibition zone (DIZ) (Candida albicans [20]): 23.9 mm; diameter of the inhibition zone (DIZ) (Staphylococcus aureus [21]): 15.6 mm; diameter of the inhibition zone (DIZ) (Klebsiella pneumoniae [22]): 14.5 mm; diameter of the inhibition zone (DIZ) (Streptococcus pyogenes [24]): 16.1 mm |
| O=C(O)c1cn(C2CC2)c2cc(N3CCNCC3)c(F)cc2c1=O [CIPROFLOXACIN] | – | – | – | – | – | – | – | – | – | – | – | – | – | – | – | – | – | – | – | – | zone of inhibition at 30 µg/disc (Escherichia coli [28]): 27 mm; zone of inhibition at 30 µg/disc (Pseudomonas aeruginosa [29]): 32 mm; zone of inhibition at 30 µg/disc (Staphylococcus aureus [30]): 22 mm |
| COC1=CC(=O)C[C@@H](C)[C@]12Oc1c(Cl)c(OC)cc(OC)c1C2=O [GRISEOFULVIN] | – | – | – | – | – | – | 6.25 (≈ 17.7 µM) | 25 (≈ 70.9 µM) | – | – | 12.5 (≈ 35.4 µM) | – | – | – | – | 12.5 (≈ 35.4 µM) | 12.5 (≈ 35.4 µM) | 25 (≈ 70.9 µM) | 6.25 (≈ 17.7 µM) | 25 (≈ 70.9 µM) | diameter of the inhibition zone (DIZ) (Talaromyces marneffei [31]): 20 mm; diameter of the inhibition zone (DIZ) (Aspergillus fumigatus [32]): 27 mm; diameter of the inhibition zone (DIZ) (Candida albicans [33]): 30 mm; diameter of the inhibition zone (DIZ) [34]: 24 mm |
